Reference: patent publication US9273006B2, “Anabolic compounds for treating and preventing bone loss diseases” (SYDDANSK UNIVERSITET, priority 2012, dated 2016)
Where two headings read alike, the source gives them in different places.

System: hMSC-TERT
Settings: 6 days after induction, hMSC-TERT
[1] = 1 μM inhibitor in osteogenic inducing media
[2] = 10 μM inhibitor in osteogenic inducing media

SMILES | Relative ALP activity [1] | Relative ALP activity [2]
CCCCCCCCCCCCCCCC(=O)OC(CC(=O)O)C[N+](C)(C)C.[Cl-] (racemic) [Palmitoyl-DL-carnitine Cl] | 0.9966 | 0.9612
Nc1ncc2[nH]cnc2n1 [2-Aminopurine] | 1.017 | 0.6855
Nc1ncnc2c1c(I)cn2[C@@H]1O[C@H](CO)[C@@H](O)[C@H]1O [5-Iodotubercidin] | 1.035 | Toxic
N#CC(C#N)=Cc1ccc([N+](=O)[O-])c(O)c1 [AG-126] | 0.9053 | 1.156
N#CC(=Cc1ccc2[nH]ccc2c1)C(N)=C(C#N)C#N [AG-370] | 1.057 | 0.7902
N#C/C(=C/c1ccc(O)c(O)c1)C(=O)NCc1ccccc1 [AG-490] | 0.9657 | 0.3482
N#C/C(=C\c1ccc(O)c(O)c1)C(=O)Nc1ccccc1 [AG-494] | 0.8788 | 0.33
COc1cc(/C=C(\C#N)C(N)=O)cc(CSc2nc3ccccc3s2)c1O [AG-825] | 0.8754 | 1.056
CC(C)(C)c1cc(/C=C(\C#N)C(N)=S)cc(C(C)(C)C)c1O [AG-879] | 0.6801 | 0.7467
COc1cc2ncc(-c3ccccc3)nc2cc1OC [AG-1296] | 0.7685 | 0.5376
O=c1cc(-c2ccc(O)cc2)oc2cc(O)cc(O)c12 [Apigenin] | 0.9029 | 0.4027
Cc1ccc(S(=O)(=O)/C=C/C#N)cc1 [BAY 11-7082] | 0.9356 | Toxic
O=C(O)c1ccc2nc(-c3ccccc3)c(-c3ccccc3)nc2c1 [BML-257] | 0.8443 | 0.7884
CC(C)c1cnc(NC(=O)Cc2ccccc2)s1 [BML-259] | 1.001 | 0.7259
OC[C@H]1O[C@@H](n2cnc3cc(Cl)c(Cl)cc32)[C@H](O)[C@@H]1O [DRB] | 0.9718 | 0.5043
O=c1c(-c2ccc(O)cc2)coc2cc(O)ccc12 [Daidzein] | 1.14 | 1.025
COc1c(C=O)c(O)cc2c1C(=O)c1ccccc1C2=O [Damnacanthal] | 0.8711 | 0.3273
COC(=O)/C=C/c1cc(O)ccc1O [Erbstatin analog] | 0.8892 | 0.7022
CN(C)CCCn1cc(C2=C(c3c[nH]c4ccccc34)C(=O)NC2=O)c2ccccc21 [GF 109203X] | 0.3532 | Toxic
O=C1Nc2ccc(I)cc2/C1=C/c1cc(Br)c(O)c(Br)c1 [GW 5074] | 0.7969 | 0.5773
O=c1c(-c2ccc(O)cc2)coc2cc(O)cc(O)c12 [Genistein] | 1.215 | 0.7692
CC1CNCCN1S(=O)(=O)c1cccc2cnccc12 (centres unmarked) [H-7] | 1.087 | 0.9015

SMILES | Relative ALP activity [1] | Relative ALP activity [2]
NCCNS(=O)(=O)c1cccc2cnccc12 [H-9] | 0.9547 | 0.9783
O=S(=O)(NCCNC/C=C/c1ccc(Br)cc1)c1cccc2cnccc12 [H-89] | 0.8924 | 0.3847
NC(N)=NCCNS(=O)(=O)c1cccc2cnccc12 [HA-1004] | 0.9706 | 0.9424
O=S(=O)(c1cccc2cnccc12)N1CCCNCC1 [HA-1077] | 1.02 | 0.908
COCc1cc(O)c(O)c(O)c1-c1c(COC)cc(O)c(O)c1O [HBDDE] | 0.8861 | 0.7296
O=C(O)c1cc(NCc2cc(O)ccc2O)ccc1O [HDBA] | 0.8708 | 0.9836
O=P(O)(O)C(O)c1ccc2ccccc2c1 (centres unmarked) [HNMPA] | 0.864 | 0.8557
Cc1cc(O)c2c(=O)c3c(O)cc(O)c4c5c(O)cc(O)c6c(=O)c7c(O)cc(C)c8c1c2c(c34)c(c78)c65 [Hypericin] | 0.8534 | 
O=C1Nc2ccccc2/C1=C1/Nc2ccccc2C1=O [Indirubin] | 0.3571 | 0.18
CN([C@@H](Cc1ccc(OS(=O)(=O)c2cccc3cnccc23)cc1)C(=O)N1CCN(c2ccccc2)CC1)S(=O)(=O)c1cccc2cnccc12 [KN-62] | 0.956 | 0.9222
COc1ccc(S(=O)(=O)N(CCO)c2ccccc2CN(C)C/C=C/c2ccc(Cl)cc2)cc1 [KN-93] | 0.7347 | 0.6802
O=C1Cc2c([nH]c3ccc(Br)cc23)-c2ccccc2N1 [Kenpaullone] | 0.5044 | 0.2055
C/C(O)=C(\C#N)C(=O)Nc1cc(Br)ccc1Br [LFM-A13] | 0.7381 | 0.9154
O=c1cc(N2CCOCC2)oc2c(-c3ccccc3)cccc12 [LY 294002] | 0.8628 | 0.439
O=C(O)c1cc(N(Cc2ccccc2O)Cc2cc(O)ccc2O)ccc1O [Lavendustin A] | 0.8641 | 0.4935
O=S(=O)(c1cccc2c(I)cccc12)N1CCCNCC1 [ML-7] | 1.031 | 0.9564
O=S(=O)(c1cccc2c(Cl)cccc12)N1CCCNCC1 [ML-9] | 0.9822 | 0.6879
CC(C)n1cnc2c(NCc3ccccc3)nc(NCCO)nc21 [N9-Isopropyl-olomoucine] | 1.128 | 0.6666
Cn1cnc2c(NCc3ccccc3)nc(NCCO)nc21 [Olomoucine] | 1.142 | 0.5408
COc1cccc(-c2cc(=O)c3ccccc3o2)c1N [PD-98059] | 0.5617 | 0.6017
Cc1ccc(-c2nn(C(C)(C)C)c3ncnc(N)c23)cc1 [PP1] | 0.9626 | 0.5665
CC(C)(C)n1nc(-c2ccc(Cl)cc2)c2c(N)ncnc21 [PP2] | 0.8276 | 0.4269

SMILES | Relative ALP activity [1] | Relative ALP activity [2]
Oc1cc(O)cc(/C=C/c2ccc(O)c(O)c2)c1 [Piceatannol] | 0.783 | 0.4885
O.O.O=c1c(O)c(-c2ccc(O)c(O)c2)oc2cc(O)cc(O)c12 [Quercetin dihydrate] | 1.001 | 0.8354
N#C/C(=C\c1cc(Cl)cc(Cl)c1)c1cccnc1 [RG-14620] | 0.8302 | 1.024
CO[C@H]1C[C@@H]2CC[C@@H](C)[C@@](O)(O2)C(=O)C(=O)N2CCCC[C@H]2C(=O)O[C@H]([C@H](C)C[C@@H]2CC[C@@H](O)[C@H](OC)C2)CC(=O)[C@H](C)/C=C(\C)[C@@H](O)[C@@H](OC)C(=O)[C@H](C)C[C@H](C)/C=C/C=C/C=C/1C [Rapamycin] | 0.509 | 0.6057
Cn1cc(C2=C(c3cn(CCCSC(=N)N)c4ccccc34)C(=O)NC2=O)c2ccccc21 [Ro 31-8220] | 0.3607 | Toxic
CC[C@H](CO)Nc1nc(NCc2ccccc2)c2ncn(C(C)C)c2n1 [Roscovitine] | 0.9865 | 0.3918
CC(=O)c1c(O)c(C)c(O)c(Cc2c(O)c3c(c(C(=O)/C=C/c4ccccc4)c2O)OC(C)(C)C=C3)c1O [Rottlerin] | 0.3874 | Toxic
Oc1ccc(-c2nc(-c3ccc(F)cc3)c(-c3ccncc3)[nH]2)cc1 [SB-202190] | 0.7708 | 0.2703
C[S+]([O-])c1ccc(-c2nc(-c3ccc(F)cc3)c(-c3ccncc3)[nH]2)cc1 (centres unmarked) [SB-203580] | 0.824 | 0.458
Oc1c2ccccc2c2c3c(cccc13)N=N2 [SP 600125] | 0.5978 | 0.2913
CC(C)c1cc(/C=C(\C#N)C(=O)NCCCc2ccccc2)cc(C(C)C)c1O [SU1498] | 0.8711 | 0.7853
CN(C)c1ccc(/C=C2\C(=O)Nc3ccccc32)cc1 [SU 4312] | 0.7481 | 0.5349
CCCCCCCCCCCCC/C=C/[C@@H](O)[C@@H](N)CO [Sphingosine] | 1.195 | Toxic
CN[C@@H]1C[C@H]2O[C@@](C)([C@@H]1OC)n1c3ccccc3c3c4c(c5c6ccccc6n2c5c31)C(=O)NC4 [Staurosporine] | TOXIC | Toxic
CC1=C(O)C(=O)[C@@H]2O[C@@H]2C1=O [Terreic acid] | 0.2721 | 0.338
CC(C)(C)c1cc(C=C(C#N)C#N)cc(C(C)(C)C)c1O [Tyrphostin9] | 0.3388 | Toxic
N#CC(C#N)=Cc1ccc(O)c(O)c1 [Tyrphostin 23] | 0.9904 | 0.7067
N#CC(C#N)=Cc1cc(O)c(O)c(O)c1 [Tyrphostin 25] | 0.9397 | 0.8233
N#C/C(=C\c1ccc(O)c(O)c1)C(N)=O [Tyrphostin 46] | 1.179 | 0.9029
N#C/C(=C\c1ccc(O)c(O)c1)C(N)=S [Tyrphostin 47] | 0.901 | 1.005
N#CC(C#N)=C(N)/C(C#N)=C/c1cc(O)c(O)c(O)c1 [Tyrphostin 51] | 0.8997 | 0.8566
N#CC(C#N)=Cc1cc(O)c(O)c([N+](=O)[O-])c1 [Tyrphostin AG 1288] | 0.8684 | 0.802
